What was measured:
Type in all cases: functional, Cricetulus griseus
Cricetinae gen. sp. [1] = test: Compound was tested for percent reduction of liver cholesterol esters absorption in cholesterol fed hamster model at a dose of 3 mg/kg/day
Cricetinae gen. sp. [2] = test: Dose required to inhibit cholesterol absorption in cholesterol fed hamster model
Cricetinae gen. sp. [3] = test: Compound was tested for percent reduction of serum cholesterol absorption in cholesterol fed hamster model at a dose of 3 mg/kg/day

Compound	Reduction (Cricetinae gen. sp. [1]) [%]	ED50 (Cricetinae gen. sp. [2]) [mg/kg/day]	Reduction (Cricetinae gen. sp. [3]) [%]
COC(=O)[C@H]1O[C@@H](Oc2ccc([C@@H]3[C@@H](CC[C@H](O)c4ccc(F)cc4)C(=O)N3c3ccc(F)cc3)cc2)[C@H](O)[C@@H](O)[C@@H]1O	-89	0.04	-48
COC(=O)[C@H]1O[C@@H](Oc2ccc([C@@H]3[C@@H](CC[C@H](OC(C)=O)c4ccc(F)cc4)C(=O)N3c3ccc(F)cc3)cc2)[C@H](OC(C)=O)[C@@H](OC(C)=O)[C@@H]1OC(C)=O	-96	0.09	-53
O=C1[C@H](CC[C@H](O)c2ccc(F)cc2)[C@@H](c2ccc(O[C@@H]3O[C@H](CO)[C@@H](O)[C@H](O)[C@H]3O)cc2)N1c1ccc(F)cc1	-92	0.08	-48
O=C(O)[C@H]1O[C@@H](Oc2ccc([C@@H]3[C@@H](CC[C@H](O)c4ccc(F)cc4)C(=O)N3c3ccc(F)cc3)cc2)[C@H](O)[C@@H](O)[C@@H]1O	-95	0.17	-50
CC(=O)OC[C@H]1O[C@@H](Oc2ccc([C@@H]3[C@@H](CC[C@H](OC(C)=O)c4ccc(F)cc4)C(=O)N3c3ccc(F)cc3)cc2)[C@H](OC(C)=O)[C@@H](OC(C)=O)[C@@H]1OC(C)=O	-58	–	-14
O=C1[C@H](CC[C@H](O)c2ccc(F)cc2)[C@@H](c2ccc(O[C@@H]3O[C@H](CO)[C@@H](O[C@@H]4O[C@H](CO)[C@@H](O)[C@H](O)[C@H]4O)[C@H](O)[C@H]3O)cc2)N1c1ccc(F)cc1	-90	0.01	-36
CC(=O)OC[C@H]1O[C@@H](O[C@H]2[C@H](OC(C)=O)[C@@H](OC(C)=O)[C@H](Oc3ccc([C@@H]4[C@@H](CC[C@H](OC(C)=O)c5ccc(F)cc5)C(=O)N4c4ccc(F)cc4)cc3)O[C@@H]2COC(C)=O)[C@H](OC(C)=O)[C@@H](OC(C)=O)[C@@H]1OC(C)=O	-75	–	-43
O=C1[C@H](CC[C@H](O)c2ccc(F)cc2)[C@@H](c2ccc(O)cc2)N1c1ccc(F)cc1 [EZETIMIBE]	-93	0.04	-43
COc1ccc([C@@H]2[C@@H](CCCc3ccccc3)C(=O)N2c2ccc(OC)cc2)cc1 [SCH-48461]	–	2	–
